Common to all, as to assay: Methyltransferase selectivity assay (SPA)
Common to all, as to type: biochemical

Experiment [1] has as its target T1, PRMT1 (Homo sapiens, UniProt Q99873).
T1 construct: purchased Structural Genomics Consortium (SGC Toronto) in-house methyltransferase panel
How it is done: (§1) Selectivity against methyltransferases were determined as described previously. Details of the assays are described in the supplementary methods.
(§2) Methyltransferase selectivity assay1
(§3) The effect of chemical probes and negative controls on the methyltransferase activities of protein, DNA and RNA methyltransferases was tested by radiometric assays using 3H-SAM. For proteins such as MLL1 trimeric, MLL3 pentameric, EZH1 (PRC2) pentameric, and EZH2 (PRC2) trimeric complexes, as well as G9a, GLP, SUV39H1, SUV39H2, SUV420H1, SUV420H2, SETD2, SETD8, SETDB1, SETD7, PRMT1, PRMT3, PRMT4, PRMT5/ MEP50 complex, PRMT6, PRMT7, PRMT8, PRMT9, PRDM9, SMYD2, SMYD3, DNMT1, and BCDIN3D the incorporation of a tritium-labeled methyl group into biotinylated substrate was monitored using scintillation proximity assay (SPA). Briefly, a 10 µL reaction containing 3H-SAM and substrate at concentrations close to the apparent Km values for each enzyme (balanced conditions) was prepared. The reactions were quenched with 10 µL of 7.5 M guanidine hydrochloride; 180 µL of 20 mM Tris buffer (pH 8.0) were added, and the mixture was transferred to a 96-well FlashPlate and incubated for 1 h. The counts per minute (CPM) was measured on a TopCount plate reader. The CPM in the absence of compound or enzyme was defined as 100% activity and background (0%), respectively, for each dataset. […]

Experiment [2] has as its target T2, PRMT5/ MEP50 complex (Homo sapiens, UniProt O14744).
T2 construct: purchased Structural Genomics Consortium (SGC Toronto) in-house methyltransferase panel
On the procedure: as §1, §2, §3

The target of experiment [3] is T3, MLL3 pentameric complex (Homo sapiens, UniProt Q8NEZ4).
T3 construct: purchased Structural Genomics Consortium (SGC Toronto) in-house methyltransferase panel
On the procedure: as §1, §2, §3

Experiment [4] concerns the target T4, GLP (Homo sapiens, UniProt Q9H9B1).
T4 construct: purchased Structural Genomics Consortium (SGC Toronto) in-house methyltransferase panel
T4 sequence (Q9H9B1 1-1298): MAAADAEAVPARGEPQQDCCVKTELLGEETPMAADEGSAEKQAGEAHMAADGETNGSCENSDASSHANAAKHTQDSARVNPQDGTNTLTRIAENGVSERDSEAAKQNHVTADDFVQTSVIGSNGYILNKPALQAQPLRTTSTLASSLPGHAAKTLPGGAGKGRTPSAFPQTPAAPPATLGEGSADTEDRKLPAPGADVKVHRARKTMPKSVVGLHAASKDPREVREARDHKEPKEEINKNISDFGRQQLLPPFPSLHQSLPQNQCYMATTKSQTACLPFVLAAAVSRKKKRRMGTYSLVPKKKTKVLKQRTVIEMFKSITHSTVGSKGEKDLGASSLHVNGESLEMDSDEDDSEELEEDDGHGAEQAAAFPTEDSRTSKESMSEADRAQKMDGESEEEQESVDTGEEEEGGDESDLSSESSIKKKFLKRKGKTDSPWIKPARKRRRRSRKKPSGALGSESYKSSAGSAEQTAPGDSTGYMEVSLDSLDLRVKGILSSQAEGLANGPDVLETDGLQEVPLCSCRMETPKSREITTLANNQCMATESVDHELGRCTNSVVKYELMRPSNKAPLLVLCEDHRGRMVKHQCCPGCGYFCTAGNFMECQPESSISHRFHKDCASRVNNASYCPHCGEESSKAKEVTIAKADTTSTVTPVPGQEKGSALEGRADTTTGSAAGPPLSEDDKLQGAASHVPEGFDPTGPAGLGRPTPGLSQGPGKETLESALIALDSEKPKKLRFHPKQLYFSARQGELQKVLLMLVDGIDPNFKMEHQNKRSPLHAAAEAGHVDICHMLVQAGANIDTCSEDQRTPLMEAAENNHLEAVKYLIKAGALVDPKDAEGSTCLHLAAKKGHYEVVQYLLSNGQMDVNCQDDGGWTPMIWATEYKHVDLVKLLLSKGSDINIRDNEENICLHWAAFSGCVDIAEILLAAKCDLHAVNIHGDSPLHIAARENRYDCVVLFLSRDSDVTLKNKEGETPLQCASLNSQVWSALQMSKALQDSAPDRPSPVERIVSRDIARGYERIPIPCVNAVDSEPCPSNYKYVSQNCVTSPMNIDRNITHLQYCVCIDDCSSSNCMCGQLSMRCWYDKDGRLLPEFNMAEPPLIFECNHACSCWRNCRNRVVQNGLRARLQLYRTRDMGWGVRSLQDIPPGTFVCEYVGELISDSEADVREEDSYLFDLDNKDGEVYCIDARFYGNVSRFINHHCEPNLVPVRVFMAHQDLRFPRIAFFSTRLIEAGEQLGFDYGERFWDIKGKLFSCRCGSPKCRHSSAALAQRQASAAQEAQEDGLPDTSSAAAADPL
As to conditions: EHMT1, Exp1, Exp2. How it is done:
as §1, §2, §3

Experiment [5] has as its target T5, SUV39H1 (Homo sapiens, UniProt O43463).
T5 construct: purchased Structural Genomics Consortium (SGC Toronto) in-house methyltransferase panel
T5 sequence (O43463 1-412): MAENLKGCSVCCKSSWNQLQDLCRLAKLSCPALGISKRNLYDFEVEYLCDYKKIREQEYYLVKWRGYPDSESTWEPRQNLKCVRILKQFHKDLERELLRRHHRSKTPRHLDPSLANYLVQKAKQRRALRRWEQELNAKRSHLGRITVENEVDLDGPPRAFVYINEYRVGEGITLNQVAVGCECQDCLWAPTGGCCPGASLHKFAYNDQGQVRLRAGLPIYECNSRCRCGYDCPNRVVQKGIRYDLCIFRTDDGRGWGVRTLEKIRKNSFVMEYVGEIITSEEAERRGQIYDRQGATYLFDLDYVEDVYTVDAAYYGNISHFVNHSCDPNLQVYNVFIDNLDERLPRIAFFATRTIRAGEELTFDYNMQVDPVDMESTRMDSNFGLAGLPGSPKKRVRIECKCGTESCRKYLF
On the procedure:
as §1, §2, §3

Experiment [6] has as its target T6, PRMT3 (Homo sapiens, UniProt O60678).
T6 construct: purchased Structural Genomics Consortium (SGC Toronto) in-house methyltransferase panel
On the procedure:
as §1, §2, §3

[7] abbreviates: 1µM compound, Exp1, Exp2, read-out: Activity %.
Where [8] appears, read: 10µM compound, Exp1, Exp2, 10 µM.
Where [9] appears, read: 10µM compound, Exp1, Exp2, read-out: Activity %.

The structures appear in SMILES notation. Like-named read-outs stand apart in the source and are kept apart here.

T1 sequence (Q99873 whole entry): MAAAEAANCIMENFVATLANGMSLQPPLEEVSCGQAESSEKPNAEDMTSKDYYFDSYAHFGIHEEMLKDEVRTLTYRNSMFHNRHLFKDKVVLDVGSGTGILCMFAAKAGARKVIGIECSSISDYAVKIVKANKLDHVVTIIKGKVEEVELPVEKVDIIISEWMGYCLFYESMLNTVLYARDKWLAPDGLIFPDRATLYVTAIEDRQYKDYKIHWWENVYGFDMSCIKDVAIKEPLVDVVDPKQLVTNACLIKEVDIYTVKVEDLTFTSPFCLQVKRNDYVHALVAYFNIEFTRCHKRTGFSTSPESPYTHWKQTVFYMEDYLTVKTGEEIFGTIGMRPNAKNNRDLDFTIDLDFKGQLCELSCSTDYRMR
T6 sequence (O60678 whole entry): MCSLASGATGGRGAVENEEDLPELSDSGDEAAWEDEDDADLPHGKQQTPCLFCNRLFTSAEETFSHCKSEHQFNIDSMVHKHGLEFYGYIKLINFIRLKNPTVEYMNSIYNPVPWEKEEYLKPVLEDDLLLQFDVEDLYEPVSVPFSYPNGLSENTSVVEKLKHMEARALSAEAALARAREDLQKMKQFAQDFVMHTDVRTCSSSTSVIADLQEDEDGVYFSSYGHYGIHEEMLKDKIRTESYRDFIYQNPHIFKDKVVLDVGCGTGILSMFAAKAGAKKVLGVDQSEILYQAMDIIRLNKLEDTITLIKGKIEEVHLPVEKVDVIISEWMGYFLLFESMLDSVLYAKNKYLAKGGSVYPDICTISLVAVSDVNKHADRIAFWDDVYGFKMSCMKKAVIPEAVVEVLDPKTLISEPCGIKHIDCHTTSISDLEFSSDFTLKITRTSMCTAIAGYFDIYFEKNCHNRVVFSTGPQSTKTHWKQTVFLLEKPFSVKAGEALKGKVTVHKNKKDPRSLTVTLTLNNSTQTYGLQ
T2 sequence (O14744 whole entry): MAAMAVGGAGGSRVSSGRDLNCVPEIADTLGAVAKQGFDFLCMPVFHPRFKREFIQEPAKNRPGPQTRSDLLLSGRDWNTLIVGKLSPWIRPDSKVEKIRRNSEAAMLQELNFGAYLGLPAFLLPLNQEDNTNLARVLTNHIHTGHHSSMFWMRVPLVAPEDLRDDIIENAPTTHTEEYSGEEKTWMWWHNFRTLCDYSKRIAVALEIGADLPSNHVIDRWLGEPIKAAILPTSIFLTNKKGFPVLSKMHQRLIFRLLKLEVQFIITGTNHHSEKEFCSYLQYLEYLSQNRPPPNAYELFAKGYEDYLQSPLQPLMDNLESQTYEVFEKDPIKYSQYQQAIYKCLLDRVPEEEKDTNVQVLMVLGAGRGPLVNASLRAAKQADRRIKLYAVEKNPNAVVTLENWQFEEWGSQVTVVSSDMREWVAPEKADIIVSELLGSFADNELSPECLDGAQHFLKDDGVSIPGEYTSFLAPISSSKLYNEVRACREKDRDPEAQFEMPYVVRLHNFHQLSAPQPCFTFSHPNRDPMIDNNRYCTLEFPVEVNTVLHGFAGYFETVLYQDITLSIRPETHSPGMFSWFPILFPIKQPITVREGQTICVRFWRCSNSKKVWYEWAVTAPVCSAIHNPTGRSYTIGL
T2 sequence (Q9BQA1 whole entry partner): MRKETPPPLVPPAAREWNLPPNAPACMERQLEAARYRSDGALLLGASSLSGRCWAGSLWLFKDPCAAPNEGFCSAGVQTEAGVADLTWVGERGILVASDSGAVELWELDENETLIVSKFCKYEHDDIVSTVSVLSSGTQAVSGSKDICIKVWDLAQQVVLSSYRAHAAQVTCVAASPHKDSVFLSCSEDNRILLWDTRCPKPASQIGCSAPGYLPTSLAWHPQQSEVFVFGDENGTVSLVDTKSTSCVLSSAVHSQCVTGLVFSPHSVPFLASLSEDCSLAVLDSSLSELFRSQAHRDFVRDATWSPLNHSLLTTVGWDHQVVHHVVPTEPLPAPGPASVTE

On to `COc1cc(OC)cc(-c2noc(N3CCN(C)C4(CCN(c5ccnc(C)c5)CC4)C3)n2)c1` [MRK-740], for which the Activity % in experiment [1] (1µM compound, Exp1, Exp2, 1 µM) amounted to 96%; in experiment [1] (setting [8]) it was 89%; in experiment [3] (1µM compound, Exp1, Exp2, 1 µM), 95%; in experiment [3] (setting [8]), 86%; in experiment [4] (1µM compound, 1 µM), 100%; in experiment [4] (10µM compound, 10 µM), 84%. Moreover, the Activity % was found to be 85% in experiment [5] (1µM compound, Exp1, Exp2, 1 µM); 80% in experiment [5] (setting [8]); 88% in experiment [6] (1µM compound, Exp1, Exp2, 1 µM); 87% in experiment [6] (setting [8]). The activity at 1 µM was 94% in experiment [1] (setting [7]); 90% in experiment [2] (setting [7]); 89% in experiment [3] (setting [7]); 93% in experiment [4] (1µM compound, read-out: Activity %); 84% in experiment [5] (setting [7]); 90% in experiment [6] (setting [7]). Besides, the activity at 10 µM in experiment [1] (setting [9]) was found to be 91%; in experiment [2] (setting [9]), 94%; in experiment [3] (setting [9]), 94%; in experiment [4] (10µM compound, read-out: Activity %) it was 94%; in experiment [5] (setting [9]), 84%; in experiment [6] (setting [9]) it was 92%.

For the compound `COc1cc(OC)cc(-c2noc(N3CCN(C)C4(CCN(c5ccccc5)CC4)C3)n2)c1` [MRK-740 -NC], the activity at 1 µM in experiment [1] (1µM compound, Exp1, Exp2) is 108%; in experiment [2] (1µM compound, Exp1, Exp2), 108%; in experiment [3] (1µM compound, Exp1, Exp2), 108%; in experiment [4] (1µM compound) it was 100%; in experiment [5] (1µM compound, Exp1, Exp2), 100%; in experiment [6] (1µM compound, Exp1, Exp2), 105%. Further, the Activity % is on record as 109% in experiment [1] (1µM compound, Exp1, Exp2, 1 µM); 98% in experiment [1] (setting [8]); 99% in experiment [2] (1µM compound, Exp1, Exp2, 1 µM); 102% in experiment [2] (setting [8]); 105% in experiment [3] (1µM compound, Exp1, Exp2, 1 µM); 95% in experiment [3] (setting [8]). For the same compound, the Activity % in experiment [4] (10µM compound, 10 µM) is on record as 98%; in experiment [5] (1µM compound, Exp1, Exp2, 1 µM) it was 104%; in experiment [6] (1µM compound, Exp1, Exp2, 1 µM) it was 106%; in experiment [6] (setting [8]), 97%. Besides, the activity at 10 µM in experiment [1] (10µM compound, Exp1, Exp2) is 105%; in experiment [2] (10µM compound, Exp1, Exp2), 95%; in experiment [3] (10µM compound, Exp1, Exp2), 107%; in experiment [4] (10µM compound), 95%; in experiment [5] (10µM compound, Exp1, Exp2) it was 101%; in experiment [6] (10µM compound, Exp1, Exp2) it was 104%.
